Measurements as given in US5232917A, “Methods, compositions, and compounds for allosteric modulation of the GABA receptor by members of the androstane and pregnane series” (priority 1991, dated 1993).
pIC50: −log10 of the molar value. Read-outs that look alike come from different tables or passages of the source.

Assays:
[1] = system: GABA receptor complex (36Cl uptake, cerebral cortical synaptoneurosomes); assay: GABA-stimulated 36Cl uptake in rat cerebral cortical synaptoneurosomes; type: biochemical, rat (male Sprague-Dawley)
Method: In addition, the ability of the BZ clonazepam to modulate ^36 Cl uptake in the presence or absence of 5α-pregnandiol was evaluated.
The homogenate was diluted to a final volume of 40 mL with buffer and filtered through three layers of Nylon mesh (160 μm).
Aliquots of membrane preparation (200 μL) were preincubated at 30° C. for 10 min. The interaction was initiated by the simultaneous addition of drugs/steroids and 0.2 mL ^36 Cl (New England Nuclear Boston, Mass., 0.55 mCi/mmol, 0.8 μCi/ml) resulting in a total incubation volume of 0.4 mL. Steroids and test drugs were solubilized in dimethylsufoxide (DMSO) and added to the reaction mixture in 2 μL aliquots. An equal volume of vehicle was always included in the control reaction mixture. The mixture was gently mixed and ^36 Cl uptake terminated after 5 sec by the of 5 mL of ice cold buffer containing 100 μM picrotoxin (Sigma Chem Co.) followed immediately by rapid filtration through glass fiber filters (Whatman GF/C) under vacuum. The filters were washed twice with 5 mL of ice-cold buffer and the filter-bound radioactivity quantitated by liquid scintillation spectrophotometry. Specific uptake was calculated by subtracting the amount of ^36 Cl bound to the filters in the absence of synaptoneurosomes from that observed in their presence. Percent enhancement represents percent increase in uptake over that of basal ^36 Cl uptake. Statistical comparisons utilized the analysis of variance (ANOVA).

[2] = system: GABA receptor-chloride ionophore complex (GR complex); assay: [35S]TBPS binding modulation assay; details: for pIC50: read-out: IC50, inhibition of [35S]-TBPS binding, +5 μM GABA, in the presence of 5 μM GABA; for Max. Inhib., maximal % of specifically bound [35S]-TBPS displaced: saturating concentrations of test compound
[3] = system: metrazol induced convulsions; assay: Inhibition of metrazol induced convulsions (Table 2); type: in vivo, mice; details: Mus musculus; inhibition of metrazol induced convulsions; read-out: Anti-Metrazol ED50
Method: Experiments were also performed to determine the physiological relevance of these interactions by measuring the ability of the compound of and used in the invention to modulate TBPS-induced convulsions in Swiss-Webster mice. […] The time to onset of myoclonus (presence of forelimb clonic activity) induced by TBPS was determined by observing each mouse for a period of 45 minutes. Significant differences between the time to onset in control mice vs. steroid-treated mice were determined by Student's t-test. […] The number of animals with tonic and/or clonic convulsions was recorded. In the maximal electroshock test, 50 mA of current at 60 Hz was delivered through corneal electrodes for 200 msec to induce tonic seizure. […] The ED50 (the dose at which the half-maximal effect occurs) was determined for each screen.
Adult male CFI mice (20-30g) were used in these studies. […] Percent protection against metrazol-induced seizures was plotted against time after administration of the compound. […] Ten to twelve mice were used per dose of test drug. […] The number of animals with tonic and/or clonic convulsions was recorded. The ability of the steroid to abolish the tonic component was defined as the endpoint. Sedative potential was determined by a rotorod test where the number of mice staying on a rotating (6 rpm) rod for ≥1 min. in each of three trials was determined.

[4] = system: number of light/dark transitions (anxiety); assay: Light/dark transition test; type: in vivo, mice (male N.I.H. Swiss-Webster); details: 3α-OH-DHP 10, 20, 40 mg/kg; 5α-THDOC 20 mg/kg; diazepam 1.0, 5.0, 10, 20 mg/kg; 20 mg/kg
Source text: (§1) The light/dark transition test (Crawley and Goodwin, 1980) is based on the observation that rodents naturally tend to explore novel environments, but open, brightly lit arenas are aversive to the rodents and inhibit exploratory behavior (Christmas and Maxwell, 1970; File, 1980). […] Similar to the light/dark transition test, the open-field test measures the antagonism between the tendency to explore a novel environment and the tendency to remain still in an aversive environment (brightly lit arena). […] The open-field test provides a simple, non-punished assessment of the potential anxiolytic properties of novel compounds. Finally, 3α-OH-DHP was tested for anxiolytic properties in a Vogel conflict paradigm. The ability of BZs to attenuate the suppression of behavior by punishment in conflict paradigms is well established (Gellar et al., 1962; Vogel et al., 1971).
(§2) Male N.I.H. Swiss-Webster mice (Harlan) weighing 15-20 g were used in all experiments. The mice were housed 4/cage in polyethylene cages with sawdust bedding. The colony room was environmentally controlled (22° C.) with a 12 hr. light/dark cycle (0600-1800 hrs.). The mice had free access to food and water. The experiments were run from 0700-1500 hrs. and groups were counterbalanced for time of day effects.
The method used was previously described by Crawley and Goodwin (1980). The apparatus included a large box (26×33×24 cm) connected to a small box (15×22×14 cm) through an opening (5×6 cm). The large box was brightly lit with a standard 100W light bulb, while the small box was kept dark. Following pretreatment with a test drug, mice were placed in the center of the large box and the number of transitions between the large and small boxes was counted for 10 min. […] During the antagonist studies, CGS-8216 was administered 30 min. prior to the test drug.
(§3) 2-Hydroxypropyl β-cyclodextrin Diazepam and chlordiazepoxide are available from Sigma, Co. (St. Louis, Mo.). CGS-8216 was obtained from Ciba-Geigy (Summit, N.J.). All drugs were dissolved in 20% β-cyclodextrin in water and sonicated overnight. All drugs were administered intraperitoneally in a volume of 100 μL/20 g. CGS-8216 was administered subcutaneously in a volume of 100 μL/20 g.
(§4) The vehicle control data were analyzed across test days using an 1-way analysis of variance (ANOVA). […] The dose-response curves were then analyzed using an 1-way ANOVA, followed by Dunnett's t-test for individual comparisons between doses and control. The open-field and habituated locomotor data were analyzed using ANOVA followed by Dunnett's t-test. […] All data is expressed as the mean±S.E.M.

open-field activity = assay: Open-field activity test; type: in vivo, mice (male N.I.H. Swiss-Webster)
Source text: as §1, §2
As a secondary measure of anxiolytic effects, naive mice were placed in the center of a large, brightly lit plexiglass box (42×42×30.5 cm) and the total distance traveled was measured during a 10 min. test period. […] The Digiscan Activity Monitor (Omnitech Electronics, Columbus, Ohio) includes 16 photobeams that surround the box. The activity monitor is linked to a computer through a Digiscan Analyzer (Omnitech Electronics) and the data is analyzed using the Integrated Lab Animal Monitoring System (Omnitech Electronics). The mice were administered drugs as described for light/dark transitions.
as §3, §4

[5] = system: metrazol-induced seizures; assay: Time course of antimetrazol activity of prodrugs; type: in vivo, mice (CF1); details: 60 mg/kg ip; for responders at 60 mg/kg: Mus musculus
progesterone receptor = biological target: T1, progesterone receptor (Bos taurus, UniProt F1N712); assay: Inhibition of 3H-progesterone binding to bovine uteral progesterone receptors
T1 construct: from tissue; host or cells: bovine uterus cytosol
T1 sequence (F1N712 1-914): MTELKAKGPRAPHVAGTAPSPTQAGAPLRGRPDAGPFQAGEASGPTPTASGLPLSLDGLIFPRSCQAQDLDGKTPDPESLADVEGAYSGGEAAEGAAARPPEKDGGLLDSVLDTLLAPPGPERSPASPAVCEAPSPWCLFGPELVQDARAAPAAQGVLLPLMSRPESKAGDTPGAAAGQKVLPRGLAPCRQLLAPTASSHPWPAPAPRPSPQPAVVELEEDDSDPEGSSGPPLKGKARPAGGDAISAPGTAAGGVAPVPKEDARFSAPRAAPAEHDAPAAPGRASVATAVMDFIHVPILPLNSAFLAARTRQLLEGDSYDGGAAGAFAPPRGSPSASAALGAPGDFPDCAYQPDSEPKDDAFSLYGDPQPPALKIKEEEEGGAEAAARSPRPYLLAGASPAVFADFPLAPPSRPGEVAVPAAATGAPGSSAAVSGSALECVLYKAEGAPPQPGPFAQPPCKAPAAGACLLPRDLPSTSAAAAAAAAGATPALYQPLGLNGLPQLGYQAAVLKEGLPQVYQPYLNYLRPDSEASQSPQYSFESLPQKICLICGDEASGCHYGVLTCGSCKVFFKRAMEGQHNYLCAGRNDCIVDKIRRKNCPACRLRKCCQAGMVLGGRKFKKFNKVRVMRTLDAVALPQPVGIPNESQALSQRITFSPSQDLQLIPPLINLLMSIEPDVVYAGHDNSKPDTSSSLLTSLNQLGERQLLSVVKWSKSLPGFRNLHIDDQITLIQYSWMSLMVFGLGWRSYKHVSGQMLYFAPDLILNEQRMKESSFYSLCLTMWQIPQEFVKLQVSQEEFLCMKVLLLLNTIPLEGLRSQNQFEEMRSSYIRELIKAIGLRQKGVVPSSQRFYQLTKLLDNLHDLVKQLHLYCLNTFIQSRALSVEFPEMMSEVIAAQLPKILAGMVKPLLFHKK
Method: The hormonal activity of drugs described herein was further studied through testing their potential estrogenic, progestinic, mineralocorticoid and glucocorticoid activities. These activities were analyzed by monitoring the ability of the drugs to inhibit binding of the steroid hormones to their respective hormone receptors.
For the data presented in Table 9, bovine uteri cytosol was isolated as they were for Table 7 and used for following binding to progesterone receptors by following the inhibition of ^3 H-progesterone, the natural ligand.

[6] = 1 hr, read-out: Antimetrazol activity, % of animals protected, 1 hr

SMILES: NCCCC(=O)O [GABA, gamma-aminobutyric acid]
- % enhancement of basal 36Cl uptake ([1]; GABA (25 μM) alone): 133 ± 6%
- shift of [35S]TBPS dose-response curve by (+)bicuculline ([2]; 0.5-3.0 μM bicuculline, FIGS. 1A, 1B): classical parallel shift

SMILES: CCO[C@H]1C[C@@]2(C)[C@@H](CC[C@@H]3[C@@H]2CC[C@]2(C)[C@@H](C(C)=O)CC[C@@H]32)C[C@@H]1O [2β-ETHOXY-3α-HYDROXY-5α-PREGNAN-20-ONE, 2β-Ethoxy-3α-hydroxy-5α-pregnan-20-one]
- ED50 [3]: 6 mg/kg
- pIC50 [2]: 7.01
- Max. Inhib., maximal % of specifically bound [35S]-TBPS displaced [2]: 100%

SMILES: CC(=O)[C@H]1CC[C@H]2[C@@H]3CC[C@H]4C[C@@H](O)CC[C@]4(C)[C@H]3CC[C@]12C [Example 3β-OH-DHP, 3β-hydroxy-5α-pregnan-20-one, reference compound]
- effect on number of light/dark transitions (words) [4]: did not produce an anxiolytic effect
- total distance, open-field (open-field activity; 20 mg/kg, 10 min, vehicle 2004.6 ± 134.6): 1979.8 ± 174.5 cm
- effect on open-field activity (open-field activity; steroids 20 mg/kg, diazepam 10 mg/kg): did not show any effect
- pIC50 [2]: < 4.00
- Max. Inhib., maximal % of specifically bound [35S]-TBPS displaced [2]: 33%
- IC50, inhibition of [35S]-TBPS binding, No GABA ([2]; washed synaptoneurosomes, no GABA added): Inactive

SMILES: CC(=O)[C@H]1CC[C@H]2[C@@H]3CC[C@H]4C[C@H](OC(=O)c5cccnc5)CC[C@]4(C)[C@H]3CC[C@]12C
- Antimetrazol activity, % of animals protected, 20 hr [5]: 50%

SMILES: CC(=O)[C@H]1CC[C@H]2[C@@H]3CC[C@H]4C[C@H](OC(=O)c5ccccc5)CC[C@]4(C)[C@H]3CC[C@]12C
- responders at 60 mg/kg [5, 6]: 33%

SMILES: CC(=O)[C@H]1CC[C@H]2[C@@H]3CC[C@H]4C[C@H](OC(=O)C5CCC5)CC[C@]4(C)[C@H]3CC[C@]12C
- Antimetrazol activity, % of animals protected, 20 hr [5]: 17%
- responders at 60 mg/kg [5, 6]: 17%

SMILES: CC(=O)OCC(=O)[C@H]1CC[C@H]2[C@@H]3CC[C@H]4C[C@H](OC(=O)C(C)C)CC[C@]4(C)[C@H]3CC[C@]12C
- responders at 60 mg/kg [5, 6]: 63%
- responders at 60 mg/kg ([5]; 4 hr, read-out: Antimetrazol activity, % of animals protected, 4 hr): 13%

SMILES: CC(=O)[C@H]1CC[C@H]2[C@@H]3CC[C@H]4C[C@](C)(O)CC[C@]4(C)[C@H]3CC[C@]12C [3α-HYDROXY-3β-METHYL-5α-PREGNAN-20-ONE, 3α-hydroxy-3β-methyl-5α-pregnan-20-one]
- ED50 [3]: 9 mg/kg
- inhibition at 10 µM (progesterone receptor; read-out: % of inhibition of 3H-progesterone binding, A, competitor 10^-5 M, 0.15 nM 3H-progesterone): 10%
- inhibition at 1 µM (progesterone receptor; read-out: % of inhibition of 3H-progesterone binding, A, competitor 10^-6 M, 0.15 nM 3H-progesterone): 4%
- inhibition at 10 µM (progesterone receptor; read-out: % of inhibition of 3H-progesterone binding, B, competitor 10^-5 M, 0.25 nM 3H-progesterone): 5%
- inhibition at 1 µM (progesterone receptor; read-out: % of inhibition of 3H-progesterone binding, B, competitor 10^-6 M, 0.25 nM 3H-progesterone): 2%
- pIC50 [2]: 7.22
- Max. Inhib., maximal % of specifically bound [35S]-TBPS displaced [2]: 100%

SMILES: CN1CCc2cc3c(cc2[C@H]1[C@@H]1OC(=O)c2c1ccc1c2OCO1)OCO3 [(+)bicuculline, reference compound]
- block of the stimulatory effect of GABA on 36Cl uptake ([1]; (+)bicuculline 10 μM, GABA 25 μM): completely block
- % enhancement of basal 36Cl uptake ([1]; GABA (25 μM) + (+)bicuculline (10 μM)): 3 ± 2%

SMILES: CC(=O)[C@H]1CC[C@H]2[C@@H]3CCC4=C[C@H](O)CC[C@]4(C)[C@H]3CC[C@]12C [3α-HYDROXY-4-PREGNEN-20-ONE]
- ED50 [3]: 20 mg/kg
- pIC50 [2]: 6.81
- Max. Inhib., maximal % of specifically bound [35S]-TBPS displaced [2]: 80%

SMILES: CO[C@H]1C[C@@]2(C)[C@@H](CC[C@@H]3[C@@H]2CC[C@]2(C)[C@@H](C(C)=O)CC[C@@H]32)C[C@@H]1O [2β-METHOXY-3α-HYDROXY-5α-PREGNAN-20-ONE, 2β-Methoxy-3α-hydroxy-5α-pregnan-20-one]
- ED50 [3]: 60 mg/kg
- pIC50 [2]: 7.18
- Max. Inhib., maximal % of specifically bound [35S]-TBPS displaced [2]: 100%
